Results: PMC9673787, “1,2,3-Benzoxathiazine-2,2-dioxides – effective inhibitors of human carbonic anhydrases” (Journal of Enzyme Inhibition and Medicinal Chemistry, 2022)
Where two headings read alike, the source gives them in different places.

Key:
[1] = target: T1, hCA II (Homo sapiens, UniProt P00918); assay: stopped flow CO2 hydrase assay, hCA II; format: biochemical; details: 15 min incubation
T1 construct: made in house
Protocol: (§1) An applied photophysics stopped-flow instrument has been used for assaying the CA catalysed CO2 hydration activity.[32]
(§2) Phenol red (at a concentration of 0.2 mM) was used as indicator, working at the absorbance maximum of 557 nm, with 20 mM Hepes (pH 7.5), and 20 mM Na2SO4 (for maintaining constant the ionic strength), following the initial rates of the CA-catalysed CO2 hydration reaction for a period of 10 − 100 s. The CO2 concentrations ranged from 1.7 to 17 mM for the determination of the kinetic parameters and inhibition constants. […] The uncatalysed rates were determined in the same manner and subtracted from the total observed rates. Stock solutions of inhibitor (0.1 mM) were prepared in distilled – deionised water, and dilutions up to 0.01 nM were done thereafter with the assay buffer. Inhibitor and enzyme solutions were preincubated together for 15 min at room temperature prior to assay in order to allow for the formation of the E – I complex. […] The inhibition constants were obtained by nonlinear least-squares methods using PRISM 3 and the Cheng – Prusoff equation, as reported earlier[15]^,[33–37]^, and represent the mean from at least three different determinations. All CA isoforms were recombinant ones obtained in-house as reported earlier[12]^,[18]^,[38–45].

[2] = target: T2, hCA IX (Homo sapiens, UniProt Q16790); assay: stopped flow CO2 hydrase assay, hCA IX; format: biochemical; details: recombinant enzyme, 15 min incubation, mean from three assays, errors ± 5–10%
T2 construct: made in house
Protocol: as §1, §2

[3] = target: T3, hCA XII (Homo sapiens, UniProt O43570); assay: stopped flow CO2 hydrase assay, hCA XII; format: biochemical; details: 15 min incubation; for Ki: recombinant enzyme, mean from three assays, errors ± 5–10%
T3 construct: made in house
T3 sequence (O43570 25-354): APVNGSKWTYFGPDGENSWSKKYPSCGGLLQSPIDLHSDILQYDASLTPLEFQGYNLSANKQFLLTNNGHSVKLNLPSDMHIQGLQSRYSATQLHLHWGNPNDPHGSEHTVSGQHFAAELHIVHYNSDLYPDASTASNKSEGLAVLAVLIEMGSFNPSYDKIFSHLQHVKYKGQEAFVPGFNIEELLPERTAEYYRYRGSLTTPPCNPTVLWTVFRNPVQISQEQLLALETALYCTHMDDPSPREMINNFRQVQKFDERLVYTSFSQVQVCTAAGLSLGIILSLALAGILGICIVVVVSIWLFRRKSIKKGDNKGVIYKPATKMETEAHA
Protocol: as §1, §2

[4] = target: T4, hCA I (Homo sapiens, UniProt P00915); assay: stopped flow CO2 hydrase assay, hCA I; format: biochemical; details: 15 min incubation; for Ki: recombinant enzyme, mean from three assays, errors ± 5–10%
T4 construct: made in house
T4 sequence (P00915 whole entry): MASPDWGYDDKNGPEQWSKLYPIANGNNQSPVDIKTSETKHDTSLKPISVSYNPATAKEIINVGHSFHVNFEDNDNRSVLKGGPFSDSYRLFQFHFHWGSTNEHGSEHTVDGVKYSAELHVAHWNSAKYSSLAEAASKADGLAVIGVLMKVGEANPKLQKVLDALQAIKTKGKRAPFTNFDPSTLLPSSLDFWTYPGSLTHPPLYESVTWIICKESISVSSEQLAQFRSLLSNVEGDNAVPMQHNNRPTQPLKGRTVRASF
Protocol: as §1, §2

[5] = recombinant enzyme, mean from three assays, errors ± 5–10%, read-out: KI (nM) hCA II

SMILES	Ki [1, 5] [nM]	Ki [2] [nM]	Ki [3] [nM]	Ki [4] [nM]	melting point [°C]	Ki ([1]; rounded, read-out: Ki hCA II) [nM]	inhibition of hCA I in words [4]	inhibition of hCA II in words [1]	inhibition of hCA XII in words [3]
O=S1(=O)N=Cc2ccc(Br)cc2O1 [2h, 7-Bromo-1,2,3-benzoxathiazine 2,2-dioxide]	45.1	22.3	70.1	46500	–	–	–	–	–
O=S1(=O)N=Cc2cc(F)ccc2O1 [2c, 6-Fluoro-1,2,3-benzoxathiazine 2,2-dioxide]	71.8	58.3	121	3320	–	–	–	–	–
CCOC(=O)c1ccc(-c2ccc3c(c2)OS(=O)(=O)N=C3)cc1 [5i, Ethyl 4-(2,2-dioxido-1,2,3-benzoxathiazin-7-yl)benzoate]	0.8	38	90.5	356	204 to 205	–	–	–	–
COc1ccc(-c2cccc3c2C=NS(=O)(=O)O3)cc1 [5c, 5–(4-Methoxyphenyl)-1,2,3-benzoxathiazine 2,2-dioxide]	36900	10900	18000	> 100000	177 to 178	–	–	–	–
O=S1(=O)N=Cc2cc(Br)ccc2O1 [2d, 6-Bromo-1,2,3-benzoxathiazine 2,2-dioxide]	8320	27.4	186	> 100000	–	8300	did not inhibit	–	–
COc1ccc2c(c1)C=NS(=O)(=O)O2 [2b, 6-Methoxy-1,2,3-benzoxathiazine 2,2-dioxide]	168	62.8	75.1	> 100000	–	–	did not inhibit	–	–
O=S1(=O)N=Cc2ccc(F)cc2O1 [2g, 7-Fluoro-1,2,3-benzoxathiazine 2,2-dioxide]	86.7	55.4	112	448	–	–	–	–	–
Cc1ccc2c(c1)C=NS(=O)(=O)O2 [2a, 6-Methyl-1,2,3-benzoxathiazine 2,2-dioxide]	116	72	98.2	25700	–	–	–	–	–
COc1ccc(-c2cccc3c2OS(=O)(=O)N=C3)cc1 [5l, 8-(4-Methoxyphenyl)-1,2,3-benzoxathiazine 2,2-dioxide]	12.3	62.7	7.3	4260	133 to 134	–	–	–	–
O=S1(=O)N=Cc2cccc(F)c2O1 [2j, 8-Fluoro-1,2,3-benzoxathiazine 2,2-dioxide]	89.2	65.9	34.7	466	–	–	–	–	–
O=S1(=O)N=Cc2cccc(Br)c2O1 [2k, 8-Bromo-1,2,3-benzoxathiazine 2,2-dioxide]	113	41.8	86.3	788	–	–	–	–	–
O=S1(=O)N=Cc2c(cccc2-c2ccccc2)O1 [5a, 5-Phenyl-1,2,3-benzoxathiazine 2,2-dioxide]	9870	5250	12600	> 100000	156 to 157	–	–	–	–
O=S1(=O)N=Cc2c(cccc2-c2ccc(F)cc2)O1 [5b, 5-(4-Fluorophenyl)-1,2,3-benzoxathiazine 2,2-dioxide]	14800	4140	7460	> 100000	–	–	–	–	–
COc1cccc2c1OS(=O)(=O)N=C2 [2i, 8-Methoxy-1,2,3-benzoxathiazine 2,2-dioxide]	39	73.6	63.4	1520	–	–	–	–	–
COc1ccc2c(c1)OS(=O)(=O)N=C2 [2f, 7-Methoxy-1,2,3-benzoxathiazine 2,2-dioxide]	55.2	39.7	83.1	987	–	–	–	–	–
O=S1(=O)N=Cc2ccc(-c3ccc(F)cc3)cc2O1 [5g, 7-(4-Fluorophenyl)-1,2,3-benzoxathiazine 2,2-dioxide]	2.1	69.8	8.2	15200	164 to 165	–	–	–	–
O=S1(=O)N=Cc2cccc(-c3ccc(F)cc3)c2O1 [5k, 8-(4-Fluorophenyl)-1,2,3-benzoxathiazine 2,2-dioxide]	5.6	32.3	12.4	1850	123 to 124	–	–	–	–
CCOC(=O)c1ccc(-c2cccc3c2C=NS(=O)(=O)O3)cc1 [5e, Ethyl 4-(2,2-dioxido-1,2,3-benzoxathiazin-5-yl)benzoate]	> 100000	> 100000	> 100000	> 100000	–	–	–	not inhibited	did not exhibit any inhibitory properties
O=S1(=O)N=Cc2cccc(-c3ccc(Cl)c(Cl)c3)c2O1 [5m, 8-(3,4-Dichlorophenyl)-1,2,3-benzoxathiazine 2,2-dioxide]	9.5	40.8	4.8	6710	165 to 166	–	–	–	–
O=S1(=O)N=Cc2cccc(-c3ccccc3)c2O1 [5j, 8-Phenyl-1,2,3-benzoxathiazine 2,2-dioxide]	0.5	49.1	61.8	668	164 to 165	–	–	–	–
O=S1(=O)N=Cc2c(cccc2-c2ccc(Cl)c(Cl)c2)O1 [5d, 5-(3,4-Dichlorophenyl)-1,2,3-benzoxathiazine 2,2-dioxide]	> 100000	> 100000	45300	> 100000	230 to 231	–	–	not inhibited	–
Cc1ccc2c(c1)OS(=O)(=O)N=C2 [2e, 7-Methyl-1,2,3-benzoxathiazine 2,2-dioxide]	78.9	53.1	58	657	–	–	–	–	–
O=S1(=O)N=Cc2ccc(-c3ccccc3)cc2O1 [5f, 7-Phenyl-1,2,3-benzoxathiazine 2,2-dioxide]	7.7	28.6	78.3	5680	171 to 172	–	–	–	–
COc1ccc(-c2ccc3c(c2)OS(=O)(=O)N=C3)cc1 [5h, 7-(4-Methoxyphenyl)-1,2,3-benzoxathiazine 2,2-dioxide]	14.3	45.2	36.4	30300	181 to 182	–	–	–	–
